In patent publication US10264787B1, “Natural mosquito larvicide” (BIOVECBLOK, s.r.l., priority 2017, dated 2019) one finds larval mortality data, which are given here for 1 molecule.

This series deals with Larvae and pupae of Anopheles gambiae, An. stephensi, Aedes albopictus and Ae. aegypti. The note with it: after 24 hours post application; 0.03 g tyrosine in 200 ml breeding water; first to fourth-instar larvae.

Procedure: The pre-adult developmental stages were grown under these conditions: 28° C., 80% relative humidity and a photoperiod of 12 h light followed by 12 h dark.
Mosquito larvicidal/pupicidal tests were carried out based on the WHO standardized procedures and guidelines for larvicidal assay.
For each mosquito species, 24 hours before the assay to reduce the larval stress, we prepared 6 trays [15 cm (width), 15 cm (length) and 6.5 cm (deep)] one for each tested products, containing 200 ml of breeding water which includes 40 mosquito larvae (first, second, third, fourth-instars) and 10 pupae. Each assay comprised of 3 replicates.
Mortality was recorded every 30 minutes from beginning for the pre-adult developmental stages (larvae and pupe). […] The dead larvae and pupae were recorded, and the average percentage mortality was calculated.

Regarding `N[C@@H](Cc1ccc(O)cc1)C(=O)O` [tyrosine], the larval mortality entry is given as “about 60%”.
